# Measurements taken from US7723068B2, “Gene cluster involved in safracin biosynthesis and its uses for genetic engineering” (PharmaMar, S.A., priority 2002, dated 2010).
# Legend:
# [1] = different tumor cell lines; background; cited from earlier work
# [2] = Antibacterial and antitumoral activities, general statements; conditions: compared with safracin A / safracin B
# [3] = tested on: SK-MEL-28; experiment: cells; conditions: Homo sapiens
# [4] = tested on: IGROV; conditions: Ovary
# [5] = tested on: DU-145; experiment: cells; conditions: Homo sapiens
# [6] = tested on: SK-BR3; conditions: Breast
# [7] = tested on: Bacillus subtilis; experiment: Antimicrobial activity on solid medium, disk; format: cell-based; conditions: Bacillus subtilis, 10 μg/disk (6 mm diameter)
# Description: Antimicrobial activity: On solid medium Bacillus subtilis. 10 μg/disk (6 mm diameter): 10 mm inhibition zone Spectroscopic Data: […]
# [8] = tested on: HELA; conditions: Cervix
# [9] = tested on: LOVO; experiment: cells; conditions: Homo sapiens
# [10] = tested on: K-562; experiment: cells; conditions: Homo sapiens
# [11] = tested on: SK-MEL-28; conditions: Melanoma
# [12] = tested on: HT29; conditions: Colon
# [13] = tested on: LN-caP; experiment: cells; conditions: Homo sapiens, LNCaP
# [14] = tested on: IGROV-ET; conditions: Ovary
# [15] = tested on: IGROV-ET; experiment: cells
# [16] = tested on: A549; conditions: NSCL
# [17] = tested on: DU-145; conditions: Prostate
# [18] = tested on: PANC1; experiment: cells; conditions: Homo sapiens
# [19] = tested on: PROTEIN synthesis; experiment: Secondary Screening, Macromolecules Synthesis PROTEIN; format: cell-based; conditions: Secondary Evaluation
# [20] = tested on: HT29; experiment: cells; conditions: Homo sapiens
# [21] = tested on: LOVO-DOX; experiment: cells
# [22] = tested on: HELA-APL; conditions: Cervix
# [23] = tested on: DNA synthesis; experiment: Secondary Screening, Macromolecules Synthesis DNA; format: cell-based; conditions: Secondary Evaluation
# [24] = tested on: A549; experiment: cells; conditions: Homo sapiens
# [25] = tested on: PANC1; conditions: Pancreas
# [26] = tested on: K-562; conditions: Leukemia
# [27] = tested on: LOVO-DOX; conditions: Colon
# [28] = tested on: HELA; experiment: cells; conditions: Homo sapiens
# [29] = tested on: IGROV; experiment: cells
# [30] = tested on: LN-caP; conditions: Prostate
# [31] = tested on: LOVO; conditions: Colon
# [32] = tested on: HELA-APL; experiment: cells
# [33] = tested on: SK-BR3; experiment: cells; conditions: Homo sapiens
# [34] = Biological Activities of natural precursors (test not specified)
structure (smiles),measurement,setting,value
"COC1=C(C)C(=O)C2=C(C1=O)[C@H](CNC(=O)[C@H](C)N)N1C[C@@H]3Cc4cc(C)c(OC)c(O)c4[C@H]([C@@H]1C2)N3C [Safracin A, reference compound]",antitumor and antibacterial activity (in words),[1],possess antitumor activity in addition to antibacterial activity
same,antibacterial and antitumoral activities (in words),[2],less antibiotic and antitumoral activity
COC1=C(C)C(=O)C2=C(C1=O)[C@H](CNC(=O)[C@H](C)N)N1[C@@H](O)[C@H]3Cc4cc(C)c(OC)c(O)c4[C@@H]([C@@H]1C2)N3C [Safracin B],antitumor and antibacterial activity (in words),[1],possess antitumor activity in addition to antibacterial activity
CCOC1=C(C)C(=O)C2=C(C1=O)C(CNC(=O)C(C)N)N1CC3Cc4cc(C)c(OCC)c(O)c4C(C1C2)N3C (stereo not drawn) [Safracin A (OEt)],GI50,"[3]; SK-MEL-28, read-out: GI50 SK-MEL-28",796 nM
same,CC50,"[3]; SK-MEL-28, read-out: LC50 SK-MEL-28",5770 nM
same,TGI IGROV,[4],928 nM
same,GI50,"[5]; DU-145, read-out: GI50 DU-145",2640 nM
same,CC50,"[5]; DU-145, read-out: LC50 DU-145",11000 nM
same,TGI SK-BR3,[6],1160 nM
same,zone of inhibition at 10 µg/disc,[7],10 mm
same,TGI HELA,[8],2910 nM
same,GI50,[9]; read-out: GI50 LOVO,2030 nM
same,CC50,[9]; read-out: LC50 LOVO,9610 nM
same,GI50,"[10]; K562, read-out: GI50 K-562",311 nM
same,CC50,"[10]; K562, read-out: LC50 K-562",1510 nM
same,TGI SK-MEL-28,[11],1900 nM
same,TGI HT29,[12],4410 nM
same,GI50,[13]; read-out: GI50 LN-caP,378 nM
same,CC50,[13]; read-out: LC50 LN-caP,1450 nM
same,TGI IGROV-ET,[14],5100 nM
same,GI50,[15]; read-out: GI50 IGROV-ET,2010 nM
same,CC50,[15]; read-out: LC50 IGROV-ET,13000 nM
same,TGI A549,[16],7170 nM
same,TGI DU-145,[17],5390 nM
same,GI50,"[18]; PANC-1, read-out: GI50 PANC1",3060 nM
same,CC50,"[18]; PANC-1, read-out: LC50 PANC1",11100 nM
same,IC50,[19],6330 nM
same,GI50,"[20]; HT-29, read-out: GI50 HT29",1970 nM
same,CC50,"[20]; HT-29, read-out: LC50 HT29",9880 nM
same,GI50,[21]; read-out: GI50 LOVO-DOX,5720 nM
same,CC50,[21]; read-out: LC50 LOVO-DOX,16900 nM
same,TGI HELA-APL,[22],2320 nM
same,IC50,[23],1810 nM
same,GI50,"[24]; A549, read-out: GI50 A549",4000 nM
same,CC50,"[24]; A549, read-out: LC50 A549",12800 nM
same,TGI PANC1,[25],5830 nM
same,TGI K-562,[26],686 nM
same,antibacterial and antitumoral activities (in words),[2],"as potent as the activities of safracin A and safracin B, respectively"
same,TGI LOVO-DOX,[27],9840 nM
same,GI50,[28]; read-out: GI50 HELA,1020 nM
same,CC50,[28]; read-out: LC50 HELA,7850 nM
same,GI50,[29]; read-out: GI50 IGROV,492 nM
same,CC50,[29]; read-out: LC50 IGROV,1760 nM
same,TGI LN-caP,[30],742 nM
same,TGI LOVO,[31],4410 nM
same,GI50,[32]; read-out: GI50 HELA-APL,764 nM
same,CC50,[32]; read-out: LC50 HELA-APL,6690 nM
same,GI50,"[33]; SK-BR-3, read-out: GI50 SK-BR3",555 nM
same,CC50,"[33]; SK-BR-3, read-out: LC50 SK-BR3",5570 nM
"COc1c(C)cc(C[C@H](N)C(=O)O)cc1O [Safracin P-2, 3-hydroxy-5-methyl-O-methyltyrosine]",Biological Activities,[34],NO ACTIVE
"COc1ccc(C[C@H](N)C(=O)O)cc1C [Safracin P-14, 3-methyl-O-methyltyrosine]",Biological Activities,[34],NO ACTIVE
